What all share (assay type): cell-based
Assay [1] deals with SW-480 (human colon cancer cells). Nature of the assay: MTT inhibition of tumor cell growth, SW-480. Particulars: Homo sapiens, SW480, 48 h. Summed up:
(§1)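 Cells seeded at 5000-10000/well in DMEM or RPMI1640 with 10% FBS, exposed 48 h at 37 °C to compound (40 μM primary screen; 5-concentration re-screen for ~50% inhibitors), triplicates. MTT added 4 h, formazan dissolved in 10% SDS overnight, A595 read; IC50 by Reed-Muench two-point method.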

Assay [2] has as its system MCF-7 (human breast cancer cells). Nature of the assay: MTT inhibition of tumor cell growth, MCF-7. Particulars: Homo sapiens, MCF7, 48 h. A digest of the protocol: as §1
For assay [3], the system named is A-549 (Human lung adenocarcinoma cells). The experiment in a line: MTT inhibition of tumor cell growth, A-549. Particulars: Homo sapiens, A549, 48 h. Summed up: as §1
Assay [4] relates to SMMC-7721 (human hepatoma cells). Nature of the assay: MTT inhibition of tumor cell growth, SMMC-7721. Particulars: Homo sapiens, SMMC-7721, 48 h. Summed up:
as §1

Assay [5] relates to Wnt signaling pathway (Top-Flash reporter gene). The experiment in a line: Top-Flash Wnt reporter gene assay in HEK293T cells with Wnt3a conditioned medium. Particulars: Homo sapiens, HEK-293T, 6 h, HEK293T, Wnt3a conditioned medium, 6 h. The protocol: HEK293T cells were cultured in DMEM containing 10% fetal bovine serum (Invitrogen) at 37° C., 5% CO2. The cells were passaged every other day. The density was retained at 70˜80% during passage. L cell line (CRL-2647, purchased from the gene bank of ATCC, the US) and the control cell line (CRL-2648, purchased from ATCC, US), which stably secreted mouse Wnt3a protein, were cultured in DMEM containing 50 ug/ml G418 and 10% fetal bovine serum, at 37° C., 5% CO2. When the cells grew to a density of about 70%, the medium was replaced with DMEM containing 10% fetal bovine serum. After continuous culture for 4 days, the culture was collected and centrifuged, and the supernatant was kept so that the Wnt conditioned medium was obtained. After titration assay, the conditioned medium was quick-frozen in liquid nitrogen, and placed at −80° C. for long-term storage, so that the titer was kept unchanged.
The cells were seeded to a 48-well plate at a density of […] cells per well, and transfected 20 h later. The reagents for plasmid transfection were calculated based on the amount in each well of the 48-well plate as following: the total amount of plasmid was 125 ng/well; the plasmid was first added to a serum-free medium (25 μL/well) and mixed well; PLUS reagent (Invitrogen) was then added in an amount of 0.5 μL/well and mixed well, then stood for 15 min; Lipofectamine (Invitrogen) liposome was added in an amount of 0.5 μL/well to serum-free DMEM medium (25 μL/well), and then mixed with the solution containing the plasmid and the PLUS, and stood for 15 min. The cells were cultured in serum-free DMEM medium (100 μL/well), and the final mixture of plasmid, PLUS and Lipofectamine were added to the cells. After incubation for 3 h, the transfection was stopped by the medium containing 10% fetal bovine serum (200 μL/well).
The HEK293T cells used for activity assay of the report gene were transfected by the method as shown in 2). Activity assay of Wnt reporter gene: the amount of plasmid for transfection was 5 ng/well for TOP-flash and 5 ng/well for GFP plasmid as internal standard, with lacZ added to reach a total amount of 125 ng/well. […] After treating for 6 h, Boehringer Mannheim Luci-ferase Assay Kit was used to lyse cells (200 μL/well). 50 μL from each well was pipetted into a 96-well plate. The indensity of GFP protein in the cell lysate was measured by fluorimeter FL600 (BIO-TEK Inc. Winooski, Vt.), and taken as internal standard for cell transfection efficiency. 10 μL substrate of luciferase was then added to each well, and the activity of luciferase was measured by Micro Lumate Plus (Perkin Elmer Inc. Wellesley, Mass.) luminometer. Finally, GFP indensity was used as internal standard to calibrate the activity of luciferase, i.e. the activity of Wnt reporter gene.
Calculation of IC50 (taking the calculation of IC50 of the Wnt signaling pathway for example): background (the activity as measured in the groups treated with a conditioned medium containing DMSO only) was subtracted from the reporter gene activity as measured in the groups treated by Wnt3a conditioned medium with or without the compound to be tested at different concentrations; and the obtained value was defined as the activity of the reporter gene induced by Wnt or the residual activity of the reporter gene after adding the compound to be tested. The residual activity was normalized by the activity induced by Wnt to get the relative residual activity. Then combine with the concentrations of the compound to be tested to plot a linear graph, and a dose-effect curve was fitted based on 4-parameter logistic fit. IC50 of the Wnt signaling pathway is determined as the concentration at which the relative residual activity is 0.5.
(Reporter assays use an easily measured gene product as a stand-in for the process of interest.)

The subject of assay [6] is HL-60 (human promyelocytic leukemia cells). Nature of the assay: MTT inhibition of tumor cell growth, HL-60. Particulars: Homo sapiens, HL-60, 48 h. A digest of the protocol: as §1
Setting [7] is: Table 2, derivatives having potential Michael reaction acceptor, read-out: IC50 SW-480.
The mark [8] stands for this setting: Table 2, derivatives having potential Michael reaction acceptor.
Where [9] appears, read: Table 9, read-out: IC50(μM), inhibitory activity on the Wnt signaling pathway.
The mark [10] stands for this setting: Table 5, derivatives having double Michael reaction acceptor, read-out: IC50 SW-480.
[11] abbreviates: Table 5, derivatives having double Michael reaction acceptor.
Setting [12] is: Table 3, single Michael reaction acceptor, modified lactonic ring, read-out: IC50 SW-480.
Where [13] appears, read: Table 6, 7-hydroxyl derivatives and controls, read-out: IC50 SW-480, 7-hydroxyl derivatives.
Where [14] appears, read: Table 3, single Michael reaction acceptor, modified lactonic ring.
The mark [15] stands for this setting: Table 8, read-out: IC50 (μM), inhibitory activity on the Wnt signaling pathway.
The mark [16] stands for this setting: Table 6, 7-carbonyl derivatives, read-out: IC50 SW-480, 7-carbonyl derivatives.
Where [17] appears, read: Table 6, double Michael reaction acceptor derivatives, read-out: IC50 SW-480, derivatives having double Michael reaction acceptor.
The mark [18] stands for this setting: Table 10, read-out: IC50 (μM), inhibitory activity on the Wnt signaling pathway.

Where two headings read alike, the source gives them in different places.

As usually defined, the IC50 is the midpoint of a concentration-inhibition curve.

In the case of `C=C1C(=O)[C@]23CC[C@H]1CC2[C@@]12CCC[C@@](C)(COC1=O)C2[C@H](CO)C3=O` (stereo partly shown) [Compound 11], the IC50 came to 2800 nM in assay [1] (setting [7]); 3940 nM in assay [2] (setting [8]); 2440 nM in assay [3] (setting [8]); 2480 nM in assay [4] (setting [8]); 6.89 ± 0.27 µM in assay [5] (setting [9]); 3850 nM in assay [6] (setting [8]).

In the case of `C=C1C(=O)[C@]23CC[C@H]1CC2[C@@]12CCC[C@@](C)(COC1=O)C2[C@H](SC)C3=O` (stereo partly shown) [Compound 12], the IC50 in assay [1] (setting [7]) is 3710 nM; in assay [2] (setting [8]), 4830 nM; in assay [3] (setting [8]) it was 3140 nM; in assay [4] (setting [8]) it was 2410 nM; in assay [5] (setting [9]), 19.8 ± 1.34 µM; in assay [6] (setting [8]), 4690 nM.

With `C=C1C(=O)[C@]23CC[C@H]1CC2[C@@]12CCC[C@@](C)(COC1=O)C2[C@H](Br)C3=O` (stereo partly shown) [Compound 13], the IC50 was found to be 1210 nM in assay [1] (setting [7]); 1510 nM in assay [2] (setting [8]); 730 nM in assay [3] (setting [8]); 830 nM in assay [4] (setting [8]); 16.5 ± 1.16 µM in assay [5] (setting [9]); 3860 nM in assay [6] (setting [8]).

As for `C=C1C(=O)[C@]23CC[C@H]1CC2[C@@]12CCC[C@@](C)(COC1=O)C2[C@H](Cl)C3=O` (stereo partly shown) [Compound 14], the IC50 in assay [1] (setting [7]) is 2380 nM; in assay [2] (setting [8]), 2630 nM; in assay [3] (setting [8]), 3030 nM; in assay [4] (setting [8]), 1960 nM; in assay [5] (setting [9]) it was 20.1 ± 1.32 µM; in assay [6] (setting [8]), 3820 nM.

In the case of `C=C1C(=O)[C@]23CC[C@H]1CC2[C@@]12CCC[C@@](C)(COC1=O)C2=CC3=O` (stereo partly shown) [Compound 15], the IC50 in assay [1] (setting [10]) was found to be 1210 nM; in assay [2] (setting [11]) it was 1440 nM; in assay [3] (setting [11]) it was 910 nM; in assay [4] (setting [11]), 800 nM; in assay [5] (setting [9]), 11.1 ± 0.63 µM; in assay [6] (setting [11]) it was 800 nM.

As to `C=C1C(=O)[C@@]23CC[C@@H](CC2[C@@]24CCC[C@@](C)(COC2=O)C14)C(=C)[C@@H]3O` (stereo partly shown) [Compound 16], the IC50 in assay [1] (setting [7]) stood at 11400 nM; in assay [2] (setting [8]), 3090 nM; in assay [3] (setting [8]), 4770 nM; in assay [4] (setting [8]), 12000 nM; in assay [5] (setting [9]), 8.27 ± 1.24 µM; in assay [6] (setting [8]), 5560 nM.

On to `C=C1C(=O)[C@]23CC[C@H]1CC2[C@@]12CCC[C@@](C)(CO[C@H]1OC)C2C[C@H]3O` (stereo partly shown) [Compound 21], for which the half-maximal inhibitory concentration (IC50) in assay [1] (setting [12]) amounted to 4190 nM; in assay [1] (setting [13]) it was 2900 nM; in assay [2] (setting [14]), 5040 nM; in assay [3] (setting [14]) it was 3170 nM; in assay [4] (setting [14]) it was 1870 nM; in assay [5] (setting [15]) it was 27.4 ± 0.98 µM. In assay [6] (setting [14]), inhibition was half-maximal at 4200 nM (IC50).

As for `C=C1C(=O)[C@]23CC[C@H]1CC2[C@@]12CCC[C@@](C)(CO[C@H]1OC)C2CC3=O` (stereo partly shown) [Compound 22], the IC50 was determined as 2200 nM in assay [1] (setting [12]); 2560 nM in assay [1] (setting [16]); 1570 nM in assay [2] (setting [14]); 670 nM in assay [3] (setting [14]); 510 nM in assay [4] (setting [14]); 17.6 ± 1.9 µM in assay [5] (setting [15]). Besides, half-maximal inhibition in assay [6] (setting [14]) (IC50) required 1460 nM.

Take `C=C1C(=O)[C@@]23CC[C@@H](CC2[C@@]24CCC[C@@](C)(CO[C@H]2OC)C14)C(=C)C3=O` (stereo partly shown) [Compound 23]: the IC50 in assay [1] (setting [10]) came to 390 nM; in assay [1] (setting [17]) it was 790 nM; in assay [2] (setting [11]), 240 nM; in assay [3] (setting [11]) it was 200 nM; in assay [4] (setting [11]), 150 nM; in assay [5] (setting [9]), 6.72 ± 1.11 µM. Besides, the IC50 in assay [6] (setting [11]) turned out to be 510 nM.

`C=C1C(=O)[C@]23CC[C@H]1CC2[C@@]12CCC[C@@](C)(COC1)C2C[C@H]3O` (stereo partly shown) [Compound 25]: the IC50 in assay [1] (setting [12]) is 6330 nM; in assay [1] (setting [13]), 4120 nM; in assay [2] (setting [14]), 4000 nM; in assay [3] (setting [14]) it was 3250 nM; in assay [4] (setting [14]) it was 4920 nM; in assay [5] (setting [15]) it was 21.7 ± 0.63 µM. The same molecule registered an IC50 in assay [6] (setting [14]) of 4870 nM.

Consider `C=C1C(=O)[C@]23CC[C@H]1CC2[C@@]12CCC[C@@](C)(COC1)C2CC3=O` (stereo partly shown) [Compound 28], for which the IC50 in assay [1] (setting [7]) turned out to be 2370 nM; in assay [1] (setting [12]), 2370 nM; in assay [1] (setting [16]), 2060 nM; in assay [2] (setting [8]) it was 2850 nM; in assay [2] (setting [14]) it was 2850 nM; in assay [3] (setting [8]), 2970 nM. Besides, the IC50 is 2970 nM in assay [3] (setting [14]); 4620 nM in assay [4] (setting [8]); 4620 nM in assay [4] (setting [14]); 9.12 ± 0.21 µM in assay [5] (setting [15]); 4900 nM in assay [6] (setting [8]); 4900 nM in assay [6] (setting [14]).

Regarding `C=C1C(=O)[C@]23CC[C@H]1CC2[C@@]12CCC[C@@](C)(COC1)C2[C@H](CO)C3=O` (stereo partly shown) [Compound 30], the IC50 in assay [1] (setting [7]) was determined as 1530 nM; in assay [2] (setting [8]), 1440 nM; in assay [3] (setting [8]), 770 nM; in assay [4] (setting [8]) it was 1900 nM; in assay [5] (setting [18]), 15.4 ± 1.5 µM; in assay [6] (setting [8]), 1940 nM.

With `C=C1C(=O)[C@@]23CC[C@@H](CC2[C@@]24CCC[C@@](C)(COC2)C14)C(=C)C3=O` (stereo partly shown) [Compound 31], the IC50 is 5430 nM in assay [1] (setting [7]); 620 nM in assay [1] (setting [10]); 450 nM in assay [1] (setting [17]); 8860 nM in assay [2] (setting [8]); 1710 nM in assay [2] (setting [11]); 6110 nM in assay [3] (setting [8]). The IC50 in assay [3] (setting [11]) was 760 nM; in assay [4] (setting [8]) it was 4440 nM; in assay [4] (setting [11]) it was 1790 nM; in assay [5] (setting [9]), 7.1 ± 0.7 µM; in assay [6] (setting [8]), 3600 nM; in assay [6] (setting [11]), 1310 nM.

Take `C=C1C(=O)[C@]23CC[C@H]1CC2[C@@]12CCC[C@@](C)(COC1)C2[C@H](COS(C)(=O)=O)C3=O` (stereo partly shown) [Compound 32]: the IC50 in assay [1] (setting [7]) was 1580 nM; in assay [2] (setting [8]) it was 2020 nM; in assay [3] (setting [8]), 2220 nM; in assay [4] (setting [8]), 3120 nM; in assay [5] (setting [18]), 19.8 ± 1.04 µM; in assay [6] (setting [8]), 3450 nM.
